Measured values published in patent publication US20230123334A1, “AMINO LIPID COMPOUND, PREPARATION METHOD THEREFOR, AND APPLICATION THEREOF” (SHENZHEN SHENXIN BIOTECHNOLOGY CO., LTD., priority 2020, published 2023).

Each molecule was assayed on HEK293 cells (assay: Preliminary screening as mRNA vectors, EGFP mRNA transfection of HEK293 cells). Conditions: EGFP mRNA 50 ng per well, 96-well plates; percentage of GFP fluorescent cells relative to total number of cells (Hoechst).
Assay type: cell-based
Summary of the method: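 Screening format: EGFP mRNA transfection (50 ng/well) into HEK293 in 10% FBS-supplemented DMEM. Percent green fluorescent cells, normalised to Hoechst nuclear count, gave the value; Lipofectamine2000 was the reference transfectant.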

SMILES	Absolute mRNA transfection efficiency in HEK293 cells [%]
CCCCCCCCSc1nc(NCCCCCC)nc(NCCN2CCN(C)CC2)n1 [Compound D5S8N6]	1.6
CCCCCCCCSc1nc(NCCCCCCC)nc(NCCN2CCN(C)CC2)n1 [Compound D5S8N7]	2.5
CCCCCCCCNc1nc(NCCN2CCN(C)CC2)nc(SCCCCCCCC)n1 [Compound D5S8N8]	1.3
CCCCCCCCCNc1nc(NCCN2CCN(C)CC2)nc(SCCCCCCCC)n1 [Compound D5S8N9]	11.2
CCCCCCCCCCCNc1nc(NCCN2CCN(C)CC2)nc(SCCCCCCCC)n1 [Compound D5S8N11]	30.1
CCCCCCCCCCCCNc1nc(NCCN2CCN(C)CC2)nc(SCCCCCCCC)n1 [Compound D5S8N12]	52.5
CCCCCCCCCCCCCNc1nc(NCCN2CCN(C)CC2)nc(SCCCCCCCC)n1 [Compound D5S8N13]	44.2
CCCCCCCCCCCCCCCNc1nc(NCCN2CCN(C)CC2)nc(SCCCCCCCC)n1 [Compound D5S8N15]	14.9
CCCCCCCCCCCCCCCCNc1nc(NCCN2CCN(C)CC2)nc(SCCCCCCCC)n1 [Compound D5S8N16]	32.3
CCCCCCCCCCCCCCCCCCNc1nc(NCCN2CCN(C)CC2)nc(SCCCCCCCC)n1 [Compound D5S8N18]	29.9
CCCCCCCCSc1nc(NCCN2CCN(C)CC2)nc(SCCCCCCCC)n1 [Compound D5S8S8]	45.2
CCCCCCCCCSc1nc(NCCN2CCN(C)CC2)nc(SCCCCCCCC)n1 [Compound D5S8S9]	36.1
CCCCCCCCCCSc1nc(NCCN2CCN(C)CC2)nc(SCCCCCCCC)n1 [Compound D5S8S10]	65.6
CCCCCCCCCCCSc1nc(NCCN2CCN(C)CC2)nc(SCCCCCCCC)n1 [Compound D5S8S11]	87.0
CCCCCCCCCCCCSc1nc(NCCN2CCN(C)CC2)nc(SCCCCCCCC)n1 [Compound D5S8S12]	47.4
CCCCCCCCCSc1nc(NCCCCCC)nc(NCCN2CCN(C)CC2)n1 [Compound D5S9N6]	2.9
CCCCCCCCCSc1nc(NCCCCCCC)nc(NCCN2CCN(C)CC2)n1 [Compound D5S9N7]	2.6
CCCCCCCCCSc1nc(NCCCCCCCC)nc(NCCN2CCN(C)CC2)n1 [Compound D5S9N8]	6.0
CCCCCCCCCNc1nc(NCCN2CCN(C)CC2)nc(SCCCCCCCCC)n1 [Compound D5S9N9]	38.2
CCCCCCCCCCCNc1nc(NCCN2CCN(C)CC2)nc(SCCCCCCCCC)n1 [Compound D5S9N11]	32.1
CCCCCCCCCCCCNc1nc(NCCN2CCN(C)CC2)nc(SCCCCCCCCC)n1 [Compound D5S9N12]	24.6

SMILES	Absolute mRNA transfection efficiency in HEK293 cells [%]
CCCCCCCCCCCCCNc1nc(NCCN2CCN(C)CC2)nc(SCCCCCCCCC)n1 [Compound D5S9N13]	41.5
CCCCCCCCCCCCCCCNc1nc(NCCN2CCN(C)CC2)nc(SCCCCCCCCC)n1 [Compound D5S9N15]	32.9
CCCCCCCCCCCCCCCCNc1nc(NCCN2CCN(C)CC2)nc(SCCCCCCCCC)n1 [Compound D5S9N16]	16.1
CCCCCCCCCCCCCCCCCCNc1nc(NCCN2CCN(C)CC2)nc(SCCCCCCCCC)n1 [Compound D5S9N18]	28.6
CCCCCCCCCCSc1nc(NCCCCCC)nc(NCCN2CCN(C)CC2)n1 [Compound D5S10N6]	1.1
CCCCCCCCCCSc1nc(NCCCCCCC)nc(NCCN2CCN(C)CC2)n1 [Compound D5S10N7]	3.2
CCCCCCCCCCSc1nc(NCCCCCCCC)nc(NCCN2CCN(C)CC2)n1 [Compound D5S10N8]	8.6
CCCCCCCCCCSc1nc(NCCCCCCCCC)nc(NCCN2CCN(C)CC2)n1 [Compound D5S10N9]	8.5
CCCCCCCCCCCNc1nc(NCCN2CCN(C)CC2)nc(SCCCCCCCCCC)n1 [Compound D5S10N11]	11.0
CCCCCCCCCCCCNc1nc(NCCN2CCN(C)CC2)nc(SCCCCCCCCCC)n1 [Compound D5S10N12]	3.6
CCCCCCCCCCCCCNc1nc(NCCN2CCN(C)CC2)nc(SCCCCCCCCCC)n1 [Compound D5S10N13]	4.6
CCCCCCCCCCCCCCCNc1nc(NCCN2CCN(C)CC2)nc(SCCCCCCCCCC)n1 [Compound D5S10N15]	1.8
CCCCCCCCCCCCCCCCNc1nc(NCCN2CCN(C)CC2)nc(SCCCCCCCCCC)n1 [Compound D5S10N16]	3.9
CCCCCCCCCCCCCCCCCCNc1nc(NCCN2CCN(C)CC2)nc(SCCCCCCCCCC)n1 [Compound D5S10N18]	2.3
CCCCCCCCCCCSc1nc(NCCCCCC)nc(NCCN2CCN(C)CC2)n1 [Compound D5S11N6]	26.9
CCCCCCCCCCCSc1nc(NCCCCCCC)nc(NCCN2CCN(C)CC2)n1 [Compound D5S11N7]	8.5
CCCCCCCCCCCSc1nc(NCCCCCCCC)nc(NCCN2CCN(C)CC2)n1 [Compound D5S11N8]	36.2
CCCCCCCCCCCSc1nc(NCCCCCCCCC)nc(NCCN2CCN(C)CC2)n1 [Compound D5S11N9]	41.5
CCCCCCCCCCCNc1nc(NCCN2CCN(C)CC2)nc(SCCCCCCCCCCC)n1 [Compound D5S11N11]	36.5
CCCCCCCCCCCCNc1nc(NCCN2CCN(C)CC2)nc(SCCCCCCCCCCC)n1 [Compound D5S11N12]	22.8
CCCCCCCCCCCCCNc1nc(NCCN2CCN(C)CC2)nc(SCCCCCCCCCCC)n1 [Compound D5S11N13]	11.2

SMILES	Absolute mRNA transfection efficiency in HEK293 cells [%]
CCCCCCCCCCCCCCCNc1nc(NCCN2CCN(C)CC2)nc(SCCCCCCCCCCC)n1 [Compound D5S11N15]	20.4
CCCCCCCCCCCCCCCCNc1nc(NCCN2CCN(C)CC2)nc(SCCCCCCCCCCC)n1 [Compound D5S11N16]	3.9
CCCCCCCCCCCCCCCCCCNc1nc(NCCN2CCN(C)CC2)nc(SCCCCCCCCCCC)n1 [Compound D5S11N18]	4.7
CCCCCCCCCCCCSc1nc(NCCCCCC)nc(NCCN2CCN(C)CC2)n1 [Compound D5S12N6]	0.3
CCCCCCCCCCCCSc1nc(NCCCCCCC)nc(NCCN2CCN(C)CC2)n1 [Compound D5S12N7]	9.9
CCCCCCCCCCCCSc1nc(NCCCCCCCC)nc(NCCN2CCN(C)CC2)n1 [Compound D5S12N8]	22.6
CCCCCCCCCCCCSc1nc(NCCCCCCCCC)nc(NCCN2CCN(C)CC2)n1 [Compound D5S12N9]	26.5
CCCCCCCCCCCCSc1nc(NCCCCCCCCCCC)nc(NCCN2CCN(C)CC2)n1 [Compound D5S12N11]	1.1
CCCCCCCCCCCCNc1nc(NCCN2CCN(C)CC2)nc(SCCCCCCCCCCCC)n1 [Compound D5S12N12]	3.5
CCCCCCCCCCCCCNc1nc(NCCN2CCN(C)CC2)nc(SCCCCCCCCCCCC)n1 [Compound D5S12N13]	0.4
CCCCCCCCCCCCCCCNc1nc(NCCN2CCN(C)CC2)nc(SCCCCCCCCCCCC)n1 [Compound D5S12N15]	0.8
CCCCCCCCCCCCCCCCNc1nc(NCCN2CCN(C)CC2)nc(SCCCCCCCCCCCC)n1 [Compound D5S12N16]	3.7
CCCCCCCCCCCCCCCCCCNc1nc(NCCN2CCN(C)CC2)nc(SCCCCCCCCCCCC)n1 [Compound D5S12N18]	0.0
CCCCCCCCCCCCCCSc1nc(NCCCCCC)nc(NCCN2CCN(C)CC2)n1 [Compound D5S14N6]	48.0
CCCCCCCCCCCCCCSc1nc(NCCCCCCC)nc(NCCN2CCN(C)CC2)n1 [Compound D5S14N7]	59.0
CCCCCCCCCCCCCCSc1nc(NCCCCCCCC)nc(NCCN2CCN(C)CC2)n1 [Compound D5S14N8]	65.6
CCCCCCCCCCCCCCSc1nc(NCCCCCCCCC)nc(NCCN2CCN(C)CC2)n1 [Compound D5S14N9]	44.9
CCCCCCCCCCCCCCSc1nc(NCCCCCCCCCCC)nc(NCCN2CCN(C)CC2)n1 [Compound D5S14N11]	19.8
CCCCCCCCCCCCCCSc1nc(NCCCCCCCCCCCC)nc(NCCN2CCN(C)CC2)n1 [Compound D5S14N12]	11.3
